Laboratory results published in US20100261246A1, “METHOD FOR INHIBITING TELOMERASE REACTION” (PANASONIC CORPORATION, priority 2009, published 2010).

What was measured:
[1] = tested on: TaKaLa LA Taq Hot Start Version (polymerase reaction); assay: PCR control band in the separate telomerase reaction / PCR experiment; type: biochemical; settings: 10 μM, no addition of λDNA
Method: (§1) Moreover, effects of inhibiting telomerase by TMPyP and anionic phthalocyanines were compared in Comparative Example 3 and Example 4 to 5 below. In these experiments, the S7700 kit was used similarly to the aforementioned Comparative Examples 1 to 2 and Examples 1 to 3. However, in Comparative Examples 1 to 2 and Examples 1 to 3 described above, the reagents required only for the telomerase reaction and PCR were all mixed first, and the telomerase reaction and PCR were carried out sequentially by regulating the reaction temperature. To the contrary, in the following Comparative Example 3 and Examples 4 to 5, only the reagents required for the telomerase reaction were first mixed to carry out a telomerase reaction, and a part of the reaction solution and the reagents required for the PCR were mixed to carry out the PCR.
(§2) Next, 4 μL of a solution prepared by diluting the solution after the telomerase reaction 20 times with milliQ water, 0.2 μL of 50× dNTP Mix, 0.2 μL of TS primer, 0.2 μL of Primer Mix, 0.1 μL of TaKaLa LA Taq Hot Start Version (manufactured by Takara Bio Inc.), 1 μL of 10× LA PCR buffer II (Mg^2+ plus) (buffer solution included in TaKaLa LA Taq Hot Start Version), and 4.3 μL of milliQ water were mixed to prepare a PCR solution in a total volume of 10 μL. Then, PCR was carried out by allowing this PCR solution to stand under temperature conditions in which a thermo cycle of: 30 sec at 95° C.; 30 sec at 59° C.; and 30 sec at 72° C. was repeated 30 times.
(§3) Finally, the solution after the PCR was electrophoresed on a 10% polyacrylamide gel, and stained with GelStar Nucleic Acid Stain (manufactured by Takara Bio Inc.). […] In the order from the leftmost lane, the results with final concentrations of TMPyP being 0 M, 0.1 μM, 0.3 μM, 1 μM, 3 μM and 10 μM are shown.

[2] = tested on: double-stranded DNA; assay: Absorbance 480 to 800 nm of phthalocyanine mixed with double-stranded DNA solution; type: binding; settings: 15 μM compound solution, DNA 50 μM, pH7
Method: A solution of 50 mM HEPES and 100 mM NaCl, pH7 (total volume: 100 μL) containing a single-stranded DNA consisting of a sequence of 5′-AGAAGAGAAAGA-3′ (SEQ ID NO: 4) and a single-stranded DNA consisting of a sequence of 5′-TCTTTCTCTTCT-3′ (SEQ ID NO: 5) at each concentration of 50 μM was prepared, which was incubated at 90° C. for 5 min, and thereafter cooled to 0° C. at a rate of temperature fall of 2° C./min, followed by finally incubating at 0° C. for 2 hrs. Since the aforementioned two kinds of DNAs are complementary to one another, both DNAs form a double-stranded DNA in the solution as a result of the incubation (hereafter, the solution referred to as “double-stranded DNA solution”).
(§4) Next, the aforementioned CuPC solution and single-stranded DNA solution, and the aforementioned CuPC solution and double-stranded DNA solution were similarly mixed, respectively. And then the absorbance of these liquid mixtures was measured at 480 to 800 nm. FIG. 9(A) and FIG. 9(B) show the results of the measurement in the cases of the single-stranded DNA solution and the double-stranded DNA solution, respectively.
as §4, with “NiPC” for “CuPC”, “respectively;” for “respectively. And then”, “11(A)” for “9(A)”, “11(B)” for “9(B)”, “respectively. In each drawing, the result obtained when the NC solution was used is also shown together.” for “respectively.”
as §4, with “PC” for “CuPC”, “respectively;” for “respectively. And then”, “mixture” for “mixtures”, “13(A)” for “9(A)”, “13(B)” for “9(B)”, “respectively. In each drawing, the result obtained when the NC solution was used is also shown together.” for “respectively.”
as §4, with “CoPC” for “CuPC”, “respectively, and” for “respectively. And”, “15(A)” for “9(A)”, “15(B)” for “9(B)”, “respectively. In each drawing, the result obtained when the NC solution was used is also shown together.” for “respectively.”

[3] = tested on: telomerase; assay: Telomerase reaction carried out first, then PCR of the diluted reaction solution, gel electrophoresis, with or without λDNA; type: biochemical; settings: final concentrations 0.1 to 10 μM
Sequence of telomerase (O14746 whole entry): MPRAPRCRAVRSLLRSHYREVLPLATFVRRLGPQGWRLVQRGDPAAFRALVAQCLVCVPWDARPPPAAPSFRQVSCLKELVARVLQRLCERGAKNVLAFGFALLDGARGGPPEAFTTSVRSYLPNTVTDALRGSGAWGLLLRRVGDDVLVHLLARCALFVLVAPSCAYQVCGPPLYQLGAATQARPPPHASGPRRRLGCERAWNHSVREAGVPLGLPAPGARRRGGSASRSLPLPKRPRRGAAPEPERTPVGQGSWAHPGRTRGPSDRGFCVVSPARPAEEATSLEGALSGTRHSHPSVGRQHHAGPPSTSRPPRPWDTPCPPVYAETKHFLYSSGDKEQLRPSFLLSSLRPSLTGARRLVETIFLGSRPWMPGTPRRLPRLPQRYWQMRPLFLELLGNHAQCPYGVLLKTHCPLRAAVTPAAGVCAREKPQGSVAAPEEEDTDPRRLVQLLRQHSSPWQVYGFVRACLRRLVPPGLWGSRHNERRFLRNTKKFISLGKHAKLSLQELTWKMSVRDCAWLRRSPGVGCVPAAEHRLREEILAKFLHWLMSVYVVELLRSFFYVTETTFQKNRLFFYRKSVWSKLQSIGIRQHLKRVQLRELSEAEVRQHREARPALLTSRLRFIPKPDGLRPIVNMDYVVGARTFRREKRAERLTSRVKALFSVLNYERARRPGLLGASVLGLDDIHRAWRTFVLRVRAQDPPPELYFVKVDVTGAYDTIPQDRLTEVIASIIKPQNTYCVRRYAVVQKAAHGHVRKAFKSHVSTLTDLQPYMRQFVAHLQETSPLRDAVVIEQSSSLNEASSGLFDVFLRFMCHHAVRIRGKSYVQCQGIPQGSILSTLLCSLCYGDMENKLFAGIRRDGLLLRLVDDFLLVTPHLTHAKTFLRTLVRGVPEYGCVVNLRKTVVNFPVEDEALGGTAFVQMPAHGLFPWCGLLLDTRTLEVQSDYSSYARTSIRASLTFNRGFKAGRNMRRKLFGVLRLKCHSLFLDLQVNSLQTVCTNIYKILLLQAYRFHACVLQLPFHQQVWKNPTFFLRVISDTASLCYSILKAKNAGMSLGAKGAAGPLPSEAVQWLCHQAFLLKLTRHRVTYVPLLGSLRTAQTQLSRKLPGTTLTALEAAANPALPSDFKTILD
Method: as §1
In addition, in each of the following Comparative Example 3 and Examples 4 to 5, experiments were carried out with or without addition of a λDNA in the telomerase reaction. Addition of the λDNA was intended to reproduce for mimicking the conditions in which a large amount of double-stranded DNAs are present as in the case of genomic DNAs in cells, and to study the effects of inhibiting telomerase by TMPyP or anionic phthalocyanines even under conditions more approximate to those in vivo, by adding a λDNA.
Telomerase reaction solution in a total volume of 10 μL were prepared by mixing 1 μL of 10× TRAP Reaction buffer, 0.2 μL of 50× dNTP Mix, 0.2 μL of TS primer, 4 μL of the telomerase solution prepared in Comparative Example 1, 2 μL of the TMPyP aqueous solution, and 2.6 μL of milliQ water (the reaction solutions having final TMPyP concentrations of 0 M, 0.1 μM, 0.3 μM, 1 μM, 3 μM and 10 μM were prepared, respectively). Then, the reaction solutions were stood under a condition of 30° C. for 60 min to allow a telomerase reaction to be carried out.
as §2, §3
On the other hand, experiments in which a λDNA was added to the telomerase reaction solution were also carried out. More specifically, in preparing the telomerase reaction solution described above, 2.6 μL of a λDNA solution (manufactured by Takara Bio Inc.) was mixed in place of mixing 2.6 μL of milliQ water. Other telomerase reaction temperature/time schedule, PCR solution preparation condition, PCR temperature/time schedule, electrophoresis condition were just the same.

[4] = tested on: single-stranded DNA; assay: Absorbance 480 to 800 nm of phthalocyanine mixed with single-stranded DNA solution; type: binding; settings: 15 μM compound solution, DNA 50 μM, pH7
Method: A solution of 50 mM HEPES and 100 mM NaCl, pH7 (total volume: 100 μL) containing a single-stranded DNA consisting of a sequence of 5′-[…]-3′ sequence (SEQ ID NO: 3) at a concentration of 50 μM was prepared, which was incubated at 90° C. for 5 min, and thereafter cooled to 0° C. at a rate of temperature fall of 2° C./min, followed by finally incubating at 0° C. for 2 hrs. The DNA in thus resulting solution was a single-stranded DNA even after the incubation (hereafter, the solution referred to as “single-stranded DNA solution”).
as §4
as §4, with “NiPC” for “CuPC”, “respectively;” for “respectively. And then”, “11(A)” for “9(A)”, “11(B)” for “9(B)”, “respectively. In each drawing, the result obtained when the NC solution was used is also shown together.” for “respectively.”
as §4, with “PC” for “CuPC”, “respectively;” for “respectively. And then”, “mixture” for “mixtures”, “13(A)” for “9(A)”, “13(B)” for “9(B)”, “respectively. In each drawing, the result obtained when the NC solution was used is also shown together.” for “respectively.”
as §4, with “CoPC” for “CuPC”, “respectively, and” for “respectively. And”, “15(A)” for “9(A)”, “15(B)” for “9(B)”, “respectively. In each drawing, the result obtained when the NC solution was used is also shown together.” for “respectively.”

Row | amplification of the PCR control (band) [1] | inhibition of the telomerase reaction (band of telomerase reaction product) ([3]; no addition of λDNA) | Substance | interaction with the double-stranded DNA (absorption spectrum vs NC solution) [2] | inhibition of the telomerase reaction (band of telomerase reaction product) ([3]; in the presence of λDNA) | interaction with the single-stranded DNA (absorption spectrum vs NC solution) [4]
1 | not inhibited | inhibited with higher concentration | Nickel(II) phthalocyanine tetrasulfonic acid tetrasodium salt [NiPC] | an interaction did not occur | can efficiently inhibit the telomerase reaction | an interaction did not occur
2 | not inhibited | inhibited with higher concentration | Copper(II) phthalocyanine-3,4′,4″,4′″-tetrasulfonic acid tetrasodium salt [CuPC] | an interaction did not occur | can efficiently inhibit the telomerase reaction | an interaction did not occur
